The record followed here is patent publication US20120295915A1, “AZABENZIMIDAZOLES AS FATTY ACID SYNTHASE INHIBITORS” (priority 2009, published 2012).

The target of this assay is FAS (Homo sapiens, UniProt P49327). The experiment in a line: FAS assay (Assay #1 residual NADPH detection or Assay #2 CoA detection with CPM dye). The note with it: in at least one experimental run; tested generally according to the assays described (assay #1 or #2 not specified). Type of assay: biochemical. The method, then: FAS assay FAS activity was measured through one of the two following assays.
Chain of FAS (P49327 whole entry): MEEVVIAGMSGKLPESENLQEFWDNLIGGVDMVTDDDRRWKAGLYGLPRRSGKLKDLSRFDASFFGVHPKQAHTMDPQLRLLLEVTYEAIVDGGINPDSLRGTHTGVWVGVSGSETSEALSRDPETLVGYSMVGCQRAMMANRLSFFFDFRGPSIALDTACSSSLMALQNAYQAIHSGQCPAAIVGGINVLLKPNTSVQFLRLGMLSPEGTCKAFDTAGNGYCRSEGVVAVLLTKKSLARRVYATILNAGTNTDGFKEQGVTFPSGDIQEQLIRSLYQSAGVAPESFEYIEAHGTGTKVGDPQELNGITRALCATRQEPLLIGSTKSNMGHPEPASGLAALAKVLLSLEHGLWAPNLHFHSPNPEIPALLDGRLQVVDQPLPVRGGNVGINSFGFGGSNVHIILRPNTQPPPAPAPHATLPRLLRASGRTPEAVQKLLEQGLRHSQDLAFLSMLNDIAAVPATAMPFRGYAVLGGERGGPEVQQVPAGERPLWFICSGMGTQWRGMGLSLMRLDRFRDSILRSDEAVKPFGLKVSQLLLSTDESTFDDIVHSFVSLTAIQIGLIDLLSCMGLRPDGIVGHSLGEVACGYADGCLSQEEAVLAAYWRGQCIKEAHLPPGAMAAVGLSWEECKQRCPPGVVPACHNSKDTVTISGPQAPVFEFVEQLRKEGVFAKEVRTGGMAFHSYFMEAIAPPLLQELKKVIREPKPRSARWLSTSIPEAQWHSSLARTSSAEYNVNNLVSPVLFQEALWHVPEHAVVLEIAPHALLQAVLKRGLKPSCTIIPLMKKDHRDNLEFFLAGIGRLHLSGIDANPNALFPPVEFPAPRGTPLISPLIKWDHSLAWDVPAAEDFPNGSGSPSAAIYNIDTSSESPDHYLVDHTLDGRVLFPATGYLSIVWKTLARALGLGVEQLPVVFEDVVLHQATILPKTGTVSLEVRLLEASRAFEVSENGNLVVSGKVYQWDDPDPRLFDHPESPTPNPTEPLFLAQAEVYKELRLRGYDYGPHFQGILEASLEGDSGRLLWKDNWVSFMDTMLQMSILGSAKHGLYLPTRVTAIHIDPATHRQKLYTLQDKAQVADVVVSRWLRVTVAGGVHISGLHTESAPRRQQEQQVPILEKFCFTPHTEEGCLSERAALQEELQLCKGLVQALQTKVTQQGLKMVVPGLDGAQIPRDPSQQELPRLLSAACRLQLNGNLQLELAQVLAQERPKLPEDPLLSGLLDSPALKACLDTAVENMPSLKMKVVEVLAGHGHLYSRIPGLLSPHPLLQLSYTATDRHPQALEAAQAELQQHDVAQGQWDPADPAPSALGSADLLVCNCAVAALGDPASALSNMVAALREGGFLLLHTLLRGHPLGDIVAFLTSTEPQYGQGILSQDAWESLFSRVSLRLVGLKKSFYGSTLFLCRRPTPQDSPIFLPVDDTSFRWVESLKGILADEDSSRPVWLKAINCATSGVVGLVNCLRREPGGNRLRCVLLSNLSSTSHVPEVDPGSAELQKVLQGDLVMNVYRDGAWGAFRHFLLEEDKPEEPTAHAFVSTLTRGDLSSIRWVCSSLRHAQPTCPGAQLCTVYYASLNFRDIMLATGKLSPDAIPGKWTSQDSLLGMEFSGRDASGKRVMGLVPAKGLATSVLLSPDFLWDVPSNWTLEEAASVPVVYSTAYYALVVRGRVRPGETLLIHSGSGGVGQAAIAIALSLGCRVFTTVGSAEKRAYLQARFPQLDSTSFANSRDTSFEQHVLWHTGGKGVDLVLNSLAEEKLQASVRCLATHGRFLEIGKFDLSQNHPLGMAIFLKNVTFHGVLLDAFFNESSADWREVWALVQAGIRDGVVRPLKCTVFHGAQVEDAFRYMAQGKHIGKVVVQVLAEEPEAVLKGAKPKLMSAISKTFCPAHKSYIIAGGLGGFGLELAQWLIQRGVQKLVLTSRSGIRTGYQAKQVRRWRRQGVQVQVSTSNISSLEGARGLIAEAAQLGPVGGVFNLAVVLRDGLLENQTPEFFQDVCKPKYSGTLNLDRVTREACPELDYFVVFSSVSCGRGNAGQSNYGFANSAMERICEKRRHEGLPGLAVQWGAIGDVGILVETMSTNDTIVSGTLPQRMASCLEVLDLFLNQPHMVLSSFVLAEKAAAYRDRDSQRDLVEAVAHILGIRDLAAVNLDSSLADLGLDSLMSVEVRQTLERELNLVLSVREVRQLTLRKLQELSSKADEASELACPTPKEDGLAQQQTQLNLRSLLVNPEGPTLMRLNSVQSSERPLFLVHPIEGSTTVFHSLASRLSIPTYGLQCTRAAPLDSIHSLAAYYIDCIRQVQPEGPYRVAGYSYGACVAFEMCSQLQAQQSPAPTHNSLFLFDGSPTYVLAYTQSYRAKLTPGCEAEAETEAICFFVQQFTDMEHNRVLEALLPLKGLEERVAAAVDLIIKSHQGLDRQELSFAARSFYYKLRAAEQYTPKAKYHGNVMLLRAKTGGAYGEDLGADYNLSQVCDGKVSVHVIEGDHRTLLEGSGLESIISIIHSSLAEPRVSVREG
Inhibition of FAS activity can be measured based on the detection of residual NADPH substrate after the FAS assay is quenched. This assay is run as a 10 μL endpoint assay in 384-well format, where the reaction contains 20 μM malonyl-CoA, 2 μM acetyl-CoA, 30 μM NADPH and 40 nM FAS in 50 mM sodium phosphate, pH 7.0. The assay is run by sequentially dispensing 5 μl of a malonyl-CoA solution, then enzyme solution (containing the acetyl-CoA, and NADPH) into a black, low volume assay plate (Greiner 784076) pre-dispensed with […] compound solutions in DMSO. The reaction is incubated at ambient temperature for 60 minutes, then quenched with 5 μL of a developing solution composed of 90 μM resazurin, 0.3 IU/ml diaphorase in 50 mM sodium phosphate, pH 7.0. The developed reaction is read on a Molecular Devices Analyst or Acquest (or equivalent) plate reader using a 530 nm excitation wavelength filter, a 580 nm emission filter, and 561 nm dichroic filter. The test compounds are prepared in neat DMSO at a concentration of 10 mM. For inhibition curves, compounds are diluted using a three fold serial dilution and tested at 11 concentrations (e.g. 25 μM-0.42 nM). Curves are analysed using Activityl)ase and XLfit, and results are expressed as pIC50 values.
Inhibition of FAS can also be quantified based on the detection of the CoA products with a thio-reactive coumarin dye. This assay is run as a 10 μL endpoint assay in 384-well format, where the reaction contains 20 μM malonyl-CoA, 20 μM acetyl-CoA, 40 μM NADPH and 2 nM FAS in 50 mM sodium phosphate, pH 7.0, and 0.04% Tween-20. The assay is run by adding 5 μL enzyme solution to a black, low volume assay plate (Greiner 784076) pre-dispensed with 100 nl compound solutions in DMSO. After 30 minutes, 5 μL substrate is added, and the reaction incubated at ambient temperature for an additional 60 minutes. The reaction is then quenched with 10 μL of 6M guanidine-HCl containing 50 μM CPM (7-diethylamino-3-(4′-maleimidylphenyl)-4-methylcoumarin (CPM; thio-reactive dye), and incubated for 30 minutes. The plate is read on an Envision (PerkinElmer) or equivalent plate reader using a 380 nm excitation wavelength filter, and a 486 nm emission filter. Data fitting and compound preparations are done as described above.
As for `O=C(C1CC1)N1CC[C@@H](Cn2c(-c3ccc(-c4ccc5[nH]ccc5c4)cc3)nc3cnccc32)C1` [Example 25, 1-{[(3S)-1-(cyclopropylcarbonyl)-3-pyrrolidinyl]methyl}-2-[4-(1H-indol-5-yl)phenyl]-1H-imidazo[4,5-c]pyridine], the midpoint of inhibition, the IC50, lay at 19 nM.

For `O=C(C1CC1)N1CC[C@@H](Cn2c(-c3ccc(-c4ccc5scnc5c4)cc3)nc3cnccc32)C1` [Example 58, 2-[4-(1,3-benzothiazol-5-yl)phenyl]-1-{[(3S)-1-(cyclopropylcarbonyl)-3-pyrrolidinyl]methyl}-1H-imidazo[4,5-c]pyridine], the IC50 (usually the concentration that gives 50% inhibition) was determined as 10 nM. In turn, `O=C(C1CC1)N1CC[C@@H](Cn2c(-c3ccc(-c4cccc5[nH]ccc45)cc3)nc3cnccc32)C1` [Example 55, 1-{[(3S)-1-(cyclopropylcarbonyl)-3-pyrrolidinyl]methyl}-2-[4-(1H-indol-4-yl)phenyl]-1H-imidazo[4,5-c]pyridine] had an IC50 of 13 nM. The result for `Cc1cccc(-c2ccc(-c3nc4ncccc4n3C[C@@H]3CCN(C(=O)C4CC4)C3)cc2)c1` [Example 2, 1-{[(3S)-1-(cyclopropylcarbonyl)-3-pyrrolidinyl]methyl}-2-(3′-methyl-4-biphenylyl)-1H-imidazo[4,5-b]pyridine] reads 63 nM. In the case of `O=C(C1CC1)N1CC[C@@H](Cn2c(-c3ccc(-c4ccc5cc[nH]c5c4)cc3)nc3cccnc32)C1` [Example 35, 3-{[(3S)-1-(cyclopropylcarbonyl)-3-pyrrolidinyl]methyl}-2-[4-(1H-indol-6-yl)phenyl]-3H-imidazo[4,5-b]pyridine] it was 9 nM; in that of `COc1ccc(-c2ccc(-c3nc4cccnc4n3C[C@@H]3CCN(C(=O)C4CC4)C3)cc2)cc1` [Example 27, 3-{[(3S)-1-(cyclopropylcarbonyl)-3-pyrrolidinyl]methyl}-2-[4′-(methyloxy)-4-biphenylyl]-3H-imidazo[4,5-b]pyridine], 45 nM. `O=C(C1CC1)N1CC[C@@H](Cn2c(-c3ccc(-c4cnc5[nH]ccc5c4)cc3)nc3cnccc32)C1` [Example 54, 1-{[(3S)-1-(cyclopropylcarbonyl)-3-pyrrolidinyl]methyl}-2-[4-(1H-pyrrolo[2,3-b]pyridin-5-yl)phenyl]-1H-imidazo[4,5-c]pyridine] returned an IC50 of 142 nM. In the case of `CN(C)C(=O)N1CC[C@@H](Cn2c(-c3ccc(-c4ccccc4)cc3)nc3cnccc32)C1` [Example 19, (3S)-3-{[2-(4-biphenylyl)-1H-imidazo[4,5-c]pyridin-1-yl]methyl}-N,N-dimethyl-1-pyrrolidinecarboxamide] it was 1060 nM; in that of `O=C(C1CC1)N1CC[C@@H](Cn2c(-c3ccc(-c4ccccc4)cc3)nc3c(Cl)ncnc32)C1` [Example 46, 8-(4-biphenylyl)-6-chloro-9-{[(3S)-1-(cyclopropylcarbonyl)-3-pyrrolidinyl]methyl}-9H-purine], 129 nM. Regarding `O=C(C1CC1)N1CC[C@@H](Cn2c(-c3ccc(-c4ccc5occc5c4)cc3)nc3cnccc32)C1` [Example 22, 2-[4-(1-benzofuran-5-yl)phenyl]-1-{[(3S)-1-(cyclopropylcarbonyl)-3-pyrrolidinyl]methyl}-1H-imidazol[4,5-c]pyridine], half-maximal inhibition (IC50) was put at 60 nM.
